According to paper PMC6152416, “Pharmacological and Toxicological Screening of Novel Benzimidazole-Morpholine Derivatives as Dual-Acting Inhibitors” (Molecules : A Journal of Synthetic Chemistry and Natural …, 2017):
In brackets after ≈: the same amount, converted by molar mass. Entries after “also recorded” stand apart in the source; their conditions may differ. Marks after values point to notes of the source that are not given here.

What was measured:
Format in all cases: cell-based
[1] = test system: Pseudomona aeuroginosa ATCC 27853; assay: Antimicrobial broth microdilution (CLSI M07-A9); conditions: for fold lower MIC50 / greater activity than chloramphenicol: Pseudomona aeuroginosa ATCC 27853; for MIC50: Pseudomona aeuroginosa [sic] ATCC 27853
Method: Microbiological studies were performed according to CLSI reference M07-A9 broth microdilution method for bacterial strains and EUCAST definitive method EDef 7.1 for Candida species. Synthesized compounds were tested for their in vitro growth inhibitory activity against Escherichia coli ATCC 35218, Escherichia coli ATCC 25922, Staphylococcus aureus, ATCC 25923, Pseudomona aeuroginosa ATCC 27853, Enterococcus faecalis ATCC29212, Klebsiella pneumoniae ATCC700603 Listeria monocytogenes ATCC7644, Candida albicans ATCC90028, Candida glabrata ATCC 90030, Candida krusei ATCC 6258, Candida parapsilosis ATCC 22019.
The cultures were obtained from Mueller-Hinton broth (Difco) for the bacterial strains and the yeasts were maintained in Roswell Park Memorial Institute (RPMI) medium, after an overnight incubation at 37 °C for both. The inocula of the test microorganisms were adjusted to match an equivalent turbidity of a 0.5 McFarland standard, which was determined using a spectrophotometer; the final inoculum size was determined to be 0.5–2.5 × 10^5 cfu/mL for antibacterial and antifungal assays. The tests were carried out for both mediums at pH = 7 and two-fold serial dilutions were applied. The last well on the microplates, which was containing only the inoculated broth, was kept as control, and the last well with no growth of microorganism was recorded to represent the minimum inhibitory concentration (MIC50) in μg/mL. For both of the antibacterial and antifungal assays, the test compounds and reference drugs were firstly dissolved in DMSO, and further dilutions were performed to the desired concentrations of 1000, 500, 250, 125, 62.5, 31.25, 15.6, 7.8, 3.9 and 1.95 μg/mL using Mueller–Hinton broth and RPMI medium. The completed plates were incubated for 24 h, and at the end of the incubation, resazurin (20 µg/mL) was added into each well to control the growth in the wells. Final plates including microorganism strains were incubated for 2 h. MIC50 values were determined using microplate reader at […] wavelengths; MIC50 readings were performed twice for entire compounds. Chloramphenicol and ketoconazole were used as reference drugs.

[2] = test system: Salmonella typhimurium TA98; assay: Ames MPF genotoxicity assay; conditions: for Ames MPF mutagenicity classification: TA98, in the presence/absence of metabolic activation (S9)
Method: (§1) The genotoxicity of selected compounds (2b, 2j, 2m) was determined by Ames assay using Ames MPF 98/100 mutagenicity assay sample kit (Xenometrix AG, Allschwil, Switzerland) as previously described elsewhere. Salmonella typhimurium strains, TA98 (frameshift mutations) and TA100 (base-pair substitutions) were used in the assay. The concentration of the compounds was between 16 and 5000 μg/mL, in accordance with the guideline. Compounds were prepared in six different concentrations (5.0, 2.5, 1.25, 0.625, 0.3125, 0.156 mg/mL) in DMSO. Mutagenic potential was determined in the absence or presence of Aroclor™-1254 induced male Sprague–Dawley rat liver microsomal enzyme (S9) mix (Xenometrix AG). Positive controls without S9 mix were 2-nitrofluorene (2.0 μg/mL) and 4-nitroquinoline N-oxide (0.1 μg/mL), whereas 1.0 μg/mL and 2.5 μg/mL of 2-aminoanthracene solutions were used as positive controls with S9 against TA98 and TA100, respectively. Solvent control was prepared with 4% DMSO. The end of an experiment was determined by the change of the indicator medium colour to yellow, which was originating from the decrease of pH due to revertant bacteria. Yellow wells were counted as positive, and compared with the negative control. Fold induction over the negative control and fold induction over the baseline were calculated (Fold induction over the negative control is accepted as the ratio of the mean number of positive wells for the dose concentration divided by the mean number of positive wells for the zero dose (negative) control. Fold induction over the baseline is accepted as the ratio of the mean number of positive wells for the dose concentration divided by zero dose baseline. The zero-dose baseline is obtained by adding one standard deviation to the mean number of positive wells of the zero dose control. If the baseline is less than 1, the value is set to 1 for calculation).
(§2) Mutagenicity was determined according to the criteria reported previously. For a baseline value of ≤3, significant increases between 2 and 3-fold of the baseline were classified as weak mutagen, and increases ≥3-fold of the baseline were classified as mutagen. […] As a rule, at least two adjacent doses with significant increases or a significant increase at the highest dose level should be observed for a mutagenic compound. All of the doses were compared according to Student’s t-test at p < 0.05 for statistical significance.

[3] = test system: Salmonella typhimurium TA100; assay: Ames MPF genotoxicity assay; conditions: for Ames MPF mutagenicity classification: TA100, with/without metabolic activation (S9)
Method: as §1, §2

Row | SMILES | fold lower MIC50 / greater activity than chloramphenicol [1] [fold] | MIC50 [1] [µg/mL] | REVERTANTS Fold Increase (over Baseline) ([2]; TA98, S9+, 0.156 mg/mL) | REVERTANTS Fold Increase (over Baseline) ([2]; TA98, S9+, 0.3125 mg/mL) | REVERTANTS Fold Increase (over Baseline) ([2]; TA98, S9+, 0.625 mg/mL) | REVERTANTS Fold Increase (over Baseline) ([2]; TA98, S9+, 1.25 mg/mL) | REVERTANTS Fold Increase (over Baseline) ([2]; TA98, S9+, 2.5 mg/mL) | REVERTANTS Fold Increase (over Baseline) ([2]; TA98, S9+, 5 mg/mL) | REVERTANTS Fold Increase (over Baseline) ([2]; TA98, S9−, 0.156 mg/mL) | REVERTANTS Fold Increase (over Baseline) ([2]; TA98, S9−, 0.3125 mg/mL) | REVERTANTS Fold Increase (over Baseline) ([2]; TA98, S9−, 0.625 mg/mL) | REVERTANTS Fold Increase (over Baseline) ([2]; TA98, S9−, 1.25 mg/mL) | REVERTANTS Fold Increase (over Baseline) ([2]; TA98, S9−, 2.5 mg/mL) | REVERTANTS Fold Increase (over Baseline) ([2]; TA98, S9−, 5 mg/mL) | Ames MPF mutagenicity classification [2] | REVERTANTS Fold Increase (over Baseline) ([3]; TA100, S9+, 0.156 mg/mL) | REVERTANTS Fold Increase (over Baseline) ([3]; TA100, S9+, 0.3125 mg/mL) | REVERTANTS Fold Increase (over Baseline) ([3]; TA100, S9+, 0.625 mg/mL) | REVERTANTS Fold Increase (over Baseline) ([3]; TA100, S9+, 1.25 mg/mL) | REVERTANTS Fold Increase (over Baseline) ([3]; TA100, S9+, 2.5 mg/mL) | also measured
1 | FC(F)(F)Oc1ccc(-c2nc3ccccc3n2CCN2CCOCC2)cc1 [Compound 2m, 2-(4-Trifluoromethoxyphenyl)-1-[2-(morpholin-4-yl)ethyl]-1H-benzimidazole] | 2 | 125 (≈ 319 µM) | 0.46 | 0.62 | 0.77 | 0.46 | 1.23 | 0.31 | 0.95 | 0.70 | 0.57 | 1.08 * | 0.82 | 1.08 * | non-genotoxic; also recorded: non-mutagenic | 0.10 | 0.10 | 0.88 | 0.19 | 0.49 | REVERTANTS Fold Increase (over Baseline) ([3]; TA100, S9+, 5 mg/mL): 0.29; REVERTANTS Fold Increase (over Baseline) ([3]; TA100, S9−, 0.156 mg/mL): 0.61; REVERTANTS Fold Increase (over Baseline) ([3]; TA100, S9−, 0.3125 mg/mL): 0.88; REVERTANTS Fold Increase (over Baseline) ([3]; TA100, S9−, 0.625 mg/mL): 0.47; REVERTANTS Fold Increase (over Baseline) ([3]; TA100, S9−, 1.25 mg/mL): 0.47; REVERTANTS Fold Increase (over Baseline) ([3]; TA100, S9−, 2.5 mg/mL): 0.54; REVERTANTS Fold Increase (over Baseline) ([3]; TA100, S9−, 5 mg/mL): 0.61; Ames MPF mutagenicity classification [3]: non-genotoxic; also recorded: non-mutagenic
2 | COc1ccc(-c2nc3ccccc3n2CCN2CCOCC2)cc1 [Compound 2b, 2-(4-Methoxyphenyl)-1-[2-(morpholin-4-yl)ethyl]-1H-benzimidazole] | 16 | 0.0156 (≈ 0.0462 µM) | 0.16 | 0.32 | 0.00 | 0.48 | 0.80 | 1.27 | 0.69 | 0.75 | 0.81 | 0.40 | 0.40 | 0.75 | non-genotoxic; also recorded: non-mutagenic | 0.06 | 0.52 | 0.45 | 0.26 | 0.26 | REVERTANTS Fold Increase (over Baseline) ([3]; TA100, S9+, 5 mg/mL): 0.13; REVERTANTS Fold Increase (over Baseline) ([3]; TA100, S9−, 0.156 mg/mL): 1.31 ***; REVERTANTS Fold Increase (over Baseline) ([3]; TA100, S9−, 0.3125 mg/mL): 1.37 ***; REVERTANTS Fold Increase (over Baseline) ([3]; TA100, S9−, 0.625 mg/mL): 0.69; REVERTANTS Fold Increase (over Baseline) ([3]; TA100, S9−, 1.25 mg/mL): 0.62; REVERTANTS Fold Increase (over Baseline) ([3]; TA100, S9−, 2.5 mg/mL): 0.25 ***; REVERTANTS Fold Increase (over Baseline) ([3]; TA100, S9−, 5 mg/mL): 0.44 *; Ames MPF mutagenicity classification [3]: non-genotoxic
